In patent US12180207B2 (ARRAY BIOPHARMA INC., priority 2018, dated 2024):

Assays:
dephosphorylated FGFR2 = dephosphorylated FGFR2 (Homo sapiens (Human), UniProt P21802); assay: FGFR enzyme binding assay (HTRF tracer displacement), FGFR2; details: 5 nM dephosphorylated FGFR2, average of multiple determinations if made
Description: The potency of compounds inhibiting human isoforms of FGFR kinase was determined using Life Technologies' Homogeneous Time Resolved Fluorescence (HTRF)-based binding assay technology. […] After a 60 minute incubation at 22° C., the extent of tracer displacement was determined using a PerkinElmer EnVision multimode plate reader via HTRF dual wavelength detection, and the percent of control (POC) was calculated using a ratiometric emission factor. One hundred POC was determined using no test compound, and 0 POC was determined in the presence of 1 μM of an appropriate control inhibitor.

[1] = target: recombinant human FGFR1 catalytic domain (amino acids 308-731) (Homo sapiens (Human), UniProt P11362); assay: FGFR1 enzyme activity assay (LanthaScreen TR-FRET); assay type: biochemical; details: 20 min incubation at 22° C., average of multiple determinations if made, read-out: FGFR1 Enz FRET IC50
recombinant human FGFR1 catalytic domain (amino acids 308-731), sequence (P11362 other isoform, or with tags, fused parts or gaps): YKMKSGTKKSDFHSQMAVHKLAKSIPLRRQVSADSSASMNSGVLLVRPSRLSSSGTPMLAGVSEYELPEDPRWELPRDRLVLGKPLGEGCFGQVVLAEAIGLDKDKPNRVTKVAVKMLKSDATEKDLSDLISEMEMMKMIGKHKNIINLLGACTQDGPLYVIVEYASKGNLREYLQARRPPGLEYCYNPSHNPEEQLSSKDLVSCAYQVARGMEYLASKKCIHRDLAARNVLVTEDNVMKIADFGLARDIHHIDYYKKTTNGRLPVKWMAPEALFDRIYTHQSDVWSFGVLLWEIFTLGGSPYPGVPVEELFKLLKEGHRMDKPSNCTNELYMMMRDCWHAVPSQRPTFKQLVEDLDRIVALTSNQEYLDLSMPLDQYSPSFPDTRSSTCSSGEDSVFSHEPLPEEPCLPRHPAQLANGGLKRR
Summary of the method: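 His-tagged FGFR1 kinase domain with 100 nM Alexa Fluor 647-poly-GT peptide and ATP in pH 7.5 HEPES/MgCl2 buffer with 2% DMSO, 20 min at 22 °C. Quenched with EDTA plus 2 nM Eu-PY20 antibody and read after 60 min. IC50 comes from a 4-parameter fit of percent of control.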

[2] = target: recombinant human FGFR3 (amino acids R397-T806) (Homo sapiens (Human), UniProt P22607); assay: FGFR3 enzyme activity assay (LanthaScreen TR-FRET); assay type: biochemical; details: 25 μM ATP, 10 min incubation at 22° C., average of multiple determinations if made, read-out: FGFR3 Enz FRET IC50
recombinant human FGFR3 (amino acids R397-T806), sequence (P22607 397-806): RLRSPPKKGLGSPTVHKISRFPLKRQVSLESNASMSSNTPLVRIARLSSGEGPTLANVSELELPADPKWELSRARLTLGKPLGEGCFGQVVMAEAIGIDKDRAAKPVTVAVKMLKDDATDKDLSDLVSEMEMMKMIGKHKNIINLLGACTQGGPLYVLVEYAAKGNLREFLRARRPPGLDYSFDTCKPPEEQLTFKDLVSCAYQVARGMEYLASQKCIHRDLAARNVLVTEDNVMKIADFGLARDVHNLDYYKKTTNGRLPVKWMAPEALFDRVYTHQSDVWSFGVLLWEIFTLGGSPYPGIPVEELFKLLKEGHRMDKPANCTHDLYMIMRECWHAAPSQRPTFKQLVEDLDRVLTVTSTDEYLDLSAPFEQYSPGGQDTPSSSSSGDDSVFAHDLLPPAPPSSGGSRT
Summary of the method: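 GST-HIS6-tagged human FGFR3 (R397-T806) was reacted with 100 nM Alexa Fluor 647-Poly-GT substrate and 25 μM ATP plus compound in HEPES/MgCl2/Triton buffer, pH 7.5, 2% DMSO, for 10 min at 22 °C.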

[3] = target: FGFR1 (SEQ ID NO: 1, amino acids 458-765) (Homo sapiens (Human), UniProt P11362); assay: LC/MS FGFR1 kobs assay (covalent protein modification); assay type: binding; details: 500 nM FGFR1, 3 μM compound
FGFR1 (SEQ ID NO: 1, amino acids 458-765), sequence (P11362 458-765): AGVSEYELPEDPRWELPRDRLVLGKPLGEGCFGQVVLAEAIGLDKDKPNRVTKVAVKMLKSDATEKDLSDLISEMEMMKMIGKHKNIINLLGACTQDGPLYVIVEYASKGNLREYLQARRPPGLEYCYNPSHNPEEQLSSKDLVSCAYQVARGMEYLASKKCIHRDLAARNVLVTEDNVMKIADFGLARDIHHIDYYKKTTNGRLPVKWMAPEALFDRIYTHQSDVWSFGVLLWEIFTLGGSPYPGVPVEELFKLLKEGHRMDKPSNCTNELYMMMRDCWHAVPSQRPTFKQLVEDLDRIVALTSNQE
Summary of the method: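 Covalent labeling of FGFR1 kinase domain (aa 458-765) tracked over time by intact-protein LC/MS after formic acid quench. kobs derived by fitting DMSO-normalized percent unmodified FGFR1 to an exponential decay model.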

[4] = target: FGFR3 (SEQ ID NO: 5, amino acids 449-759) (Homo sapiens (Human), UniProt P22607); assay: LC/MS FGFR3 kobs assay (covalent protein modification); assay type: binding; details: 500 nM FGFR3, 3 μM compound
FGFR3 (SEQ ID NO: 5, amino acids 449-759), sequence (P22607 449-759): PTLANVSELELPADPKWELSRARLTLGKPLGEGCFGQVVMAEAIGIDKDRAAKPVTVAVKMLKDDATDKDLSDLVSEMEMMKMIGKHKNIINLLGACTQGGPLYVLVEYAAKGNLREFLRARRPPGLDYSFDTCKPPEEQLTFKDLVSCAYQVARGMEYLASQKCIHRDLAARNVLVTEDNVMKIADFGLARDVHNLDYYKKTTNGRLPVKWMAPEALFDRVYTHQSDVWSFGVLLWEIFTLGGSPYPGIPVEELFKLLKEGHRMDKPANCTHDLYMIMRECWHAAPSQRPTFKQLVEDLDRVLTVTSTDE
Summary of the method: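 Each time-point sample was quenched in 0.4% formic acid and analyzed by Q-TOF LC/MS. Deconvoluted signals gave percent modified and unmodified protein, normalized to the DMSO control, and the decay of unmodified protein yielded kobs.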

dephosphorylated FGFR2, sequence (P21802 22-821): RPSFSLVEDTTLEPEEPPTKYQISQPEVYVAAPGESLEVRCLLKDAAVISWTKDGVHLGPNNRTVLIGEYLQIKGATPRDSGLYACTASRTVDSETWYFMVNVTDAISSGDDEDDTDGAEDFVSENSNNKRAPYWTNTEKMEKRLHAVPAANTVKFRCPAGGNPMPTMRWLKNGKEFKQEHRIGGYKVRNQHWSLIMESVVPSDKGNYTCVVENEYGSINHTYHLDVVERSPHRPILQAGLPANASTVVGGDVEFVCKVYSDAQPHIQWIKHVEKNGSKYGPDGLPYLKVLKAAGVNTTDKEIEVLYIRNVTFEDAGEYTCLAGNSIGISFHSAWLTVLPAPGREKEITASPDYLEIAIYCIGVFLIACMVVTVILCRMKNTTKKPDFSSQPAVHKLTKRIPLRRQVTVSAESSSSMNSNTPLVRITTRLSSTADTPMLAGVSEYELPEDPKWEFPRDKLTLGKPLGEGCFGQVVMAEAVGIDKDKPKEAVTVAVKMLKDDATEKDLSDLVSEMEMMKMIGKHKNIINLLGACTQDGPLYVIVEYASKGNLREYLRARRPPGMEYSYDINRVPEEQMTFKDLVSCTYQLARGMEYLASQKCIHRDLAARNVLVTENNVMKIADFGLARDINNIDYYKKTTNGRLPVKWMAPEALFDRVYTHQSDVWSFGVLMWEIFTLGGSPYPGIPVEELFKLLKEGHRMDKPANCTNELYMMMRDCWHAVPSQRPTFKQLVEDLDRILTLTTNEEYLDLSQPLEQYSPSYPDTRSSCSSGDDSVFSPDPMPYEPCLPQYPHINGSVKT

IC50 (dephosphorylated FGFR2) | IC50 [1] | IC50 [2] | FGFR1 Enz kobs [3] | FGFR3 Enz kobs [4] | SMILES
20 nM | 15 nM | 6 nM | 0.00043 min⁻¹ | 0.00475 min⁻¹ | COc1cc(-c2cnn(C3CCN(C(=O)C4CN(C(=O)/C=C/CN5CCOCC5)C4)CC3)c2)cn2ncc(C#N)c12 [Example 184, (E)-4-methoxy-6-(1-(1-(1-(4-morpholinobut-2-enoyl)azetidine-3-carbonyl)piperidin-4-yl)-1H-pyrazol-4-yl)pyrazolo[1,5-a]pyridine-3-carbonitrile]
18 nM | 43 nM | 6 nM | 0.00014 min⁻¹ | 0.00171 min⁻¹ | COc1cc(-c2cnn(C3CCN(C(=O)C4CN(C(=O)/C=C/CO)C4)CC3)c2)cn2ncc(C#N)c12 [Example 141, (E)-6-(1-(1-(1-(4-hydroxybut-2-enoyl)azetidine-3-carbonyl)piperidin-4-yl)-1H-pyrazol-4-yl)-4-methoxypyrazolo [1,5-a]pyridine-3-carbonitrile]
12 nM | 9 nM | 2 nM | 0.00249 min⁻¹ | 0.02709 min⁻¹ | COc1cc(-c2cnn(C3CCN(C(=O)C4CN(C(=O)/C=C/CCl)C4)CC3)c2)cn2ncc(C#N)c12 [Example 181, (E)-6-(1-(1-(1-(4-chlorobut-2-enoyl)azetidine-3-carbonyl)piperidin-4-yl)-1H-pyrazol-4-yl)-4-methoxypyrazolo[1,5-a]pyridine-3-carbonitrile]
22 nM | 903 nM | 17 nM | 0.00774 min⁻¹ | 0.1388 min⁻¹ | COc1cc(-c2cnn(C3CCN(C(=O)C4(F)CN(C(=O)/C=C/CN(C)C)C4)CC3)c2C)cn2ncc(Cl)c12 [Example 170, (E)-1-(3-(4-(4-(3-chloro-4-methoxypyrazolo [1,5-a]pyridin-6-yl)-5-methyl-1H-pyrazol-1-yl)piperidine-1-carbonyl)-3-fluoroazetidin-1-yl)-4-(dimethylamino)but-2-en-1-one]
39 nM | 49 nM | 20 nM | 0.00388 min⁻¹ | 0.02186 min⁻¹ | C=CC(=O)N1CC(C(=O)N2CCC3(C2)CN(c2ccc(-c4cc(OC)c5c(C#N)cnn5c4)cn2)C3)C1 [Example 103, 6-(6-(6-(1-acryloylazetidine-3-carbonyl)-2,6-diazaspiro[3.4]octan-2-yl)pyridin-3-yl)-4-methoxypyrazolo[1,5-a]pyridine-3-carbonitrile]
219 nM | 148 nM | 72 nM | 0.00847 min⁻¹ | 0.06456 min⁻¹ | COc1cc(-c2ccc(N3CCN(C(=O)C4(F)CN(C(=O)/C=C/CN(C)C)C4)CC3)nc2C)cn2ncc(C#N)c12 [Example 168, (E)-6-(6-(4-(1-(4-(dimethylamino)but-2-enoyl)-3-fluoroazetidine-3-carbonyl)piperazin-1-yl)-2-methylpyridin-3-yl)-4-methoxypyrazolo [1,5-a]pyridine-3-carbonitrile]
14 nM | 102 nM | 8 nM | 0.00713 min⁻¹ | 0.1705 min⁻¹ | COc1cc(-c2nnn(C3CCN(C(=O)C4(F)CN(C(=O)/C=C/CN(C)C)C4)CC3)c2C)cn2ncc(C#N)c12 [Example 164, (E)-6-(1-(1-(1-(4-(dimethylamino)but-2-enoyl)-3-fluoroazetidine-3-carbonyl)piperidin-4-yl)-5-methyl-1H-1,2,3-triazol-4-yl)-4-methoxypyrazolo [1,5-a]pyridine-3-carbonitrile]
45 nM | 281 nM | 41 nM | 0.00434 min⁻¹ | 0.06559 min⁻¹ | COc1cc(-c2cnn(C3CCN(CC4(OC)CN(C(=O)/C=C/CN(C)C)C4)CC3)c2C)cn2ncc(Cl)c12 [Example 173, (E)-1-(3-((4-(4-(3-chloro-4-methoxypyrazolo [1,5-a]pyridin-6-yl)-5-methyl-1H-pyrazol-1-yl)piperidin-1-yl)methyl)-3-methoxyazetidin-1-yl)-4-(dimethylamino)but-2-en-1-one]
56 nM | 68 nM | 27 nM | 0.00291 min⁻¹ | 0.01688 min⁻¹ | C=CC(=O)N1CC(C(=O)N2C[C@H]3C[C@@H]2CN3c2ccc(-c3cc(OC)c4c(C#N)cnn4c3)cn2)C1 [Example 107, 6-(6-((1R,4R)-5-(1-acryloylazetidine-3-carbonyl)-2,5-diazabicyclo[2.2.1]heptan-2-yl)pyridin-3-yl)-4-methoxypyrazolo[1,5-a]pyridine-3-carbonitrile]
103 nM | 789 nM | 43 nM | 0.00318 min⁻¹ | 0.03885 min⁻¹ | C=CC(=O)N1CC(OC)(C(=O)N2CCC(n3ncc(-c4cc(OC)c5c(Cl)cnn5c4)c3C)CC2)C1 [Example 117, 1-(3-(4-(4-(3-chloro-4-methoxypyrazolo[1,5-a]pyridin-6-yl)-5-methyl-1H-pyrazol-1-yl)piperidine-1-carbonyl)-3-methoxyazetidin-1-yl)prop-2-en-1-one]
15 nM | 12 nM | 3 nM | 0.00202 min⁻¹ | 0.01781 min⁻¹ | COc1cc(-c2cnn(C3CCN(C(=O)C4CN(C(=O)/C=C/CN5CC[C@H](F)C5)C4)CC3)c2)cn2ncc(C#N)c12 [Example 182, (S,E)-6-(1-(1-(1-(4-(3-fluoropyrrolidin-1-yl)but-2-enoyl)azetidine-3-carbonyl)piperidin-4-yl)-1H-pyrazol-4-yl)-4-methoxypyrazolo[1,5-a]pyridine-3-carbonitrile]
125 nM | 2210 nM | 229 nM | 0.00486 min⁻¹ | 0.03573 min⁻¹ | COc1cc(-c2nn(C3CCN(C(=O)C4(F)CN(C(=O)/C=C/CN(C)C)C4)CC3)nc2C)cn2ncc(C#N)c12 [Example 163, (E)-6-(2-(1-(1-(4-(dimethylamino)but-2-enoyl)-3-fluoroazetidine-3-carbonyl)piperidin-4-yl)-5-methyl-2H-1,2,3-triazol-4-yl)-4-methoxypyrazolo [1,5-a]pyridine-3-carbonitrile]
19 nM | 16 nM | 5 nM | 0.00259 min⁻¹ | 0.02414 min⁻¹ | COc1cc(-c2cnn(C3CCN(C(=O)C4CN(C(=O)/C=C/CN5CC[C@@H](F)C5)C4)CC3)c2)cn2ncc(C#N)c12 [Example 183, (R,E)-6-(1-(1-(1-(4-(3-fluoropyrrolidin-1-yl)but-2-enoyl)azetidine-3-carbonyl)piperidin-4-yl)-1H-pyrazol-4-yl)-4-methoxypyrazolo[1,5-a]pyridine-3-carbonitrile]
16 nM | 21 nM | 20 nM | 0.00852 min⁻¹ | 0.1108 min⁻¹ | C=CC(=O)N1CC(F)(C(=O)N2CCN(c3ccc(-c4cc(OC)c5c(C#N)cnn5c4)cn3)CC2)C1 [Example 112, 6-(6-(4-(1-acryloyl-3-fluoroazetidine-3-carbonyl)piperazin-1-yl)pyridin-3-yl)-4-methoxypyrazolo[1,5-a]pyridine-3-carbonitrile]
28 nM | 20 nM | 10 nM | 0.00291 min⁻¹ | 0.01344 min⁻¹ | C=CC(=O)N1CC(CN2C[C@H]3C[C@@H]2CN3c2ccc(-c3cc(OC)c4c(C#N)cnn4c3)cn2)C1 [Example 108, 6-(6-((1R,4R)-5-((1-acryloylazetidin-3-yl)methyl)-2,5-diazabicyclo[2.2.1]heptan-2-yl)pyridin-3-yl)-4-methoxypyrazolo[1,5-a]pyridine-3-carbonitrile]
60 nM | 334 nM | 39 nM | 0.00359 min⁻¹ | 0.04536 min⁻¹ | C=CC(=O)N1CC(CN2CCC(n3ncc(-c4cc(OC)c5c(Cl)cnn5c4)c3C)CC2)(OC)C1 [Example 119, 1-(3-((4-(4-(3-chloro-4-methoxypyrazolo[1,5-a]pyridin-6-yl)-5-methyl-1H-pyrazol-1-yl)piperidin-1-yl)methyl)-3-methoxyazetidin-1-yl)prop-2-en-1-one]
